Results as given in patent US6214834A, “Integrin inhibitor prodrugs” (Dupont Pharmaceuticals Company, priority 1998, dated 2001).
Several values for one entry are separate records, joined by “and”; a condition that tells them apart may be missing. Identical values can stand only once. Like-named read-outs stand apart in the source and are kept apart here.

How the values were obtained:
[1] = Free solution electrophoretic mobility by capillary electrophoresis; type: physicochemical; details: for Electrophoretic Mobility: 400 V/cm, 25° C.
Experimental: To obtain a preliminary indication of the feasibility of transdermal iontophoretic delivery and the possible dependence on pH, the solution mobilities of the methyl and choline esters were evaluated using capillary electrophoresis. Free solution mobilities were determined using a capillary electrophoresis instrument equipped with a u.v. detector and a cationic amine capillary column of 57 cm total length, 50 cm length to detector, 370 μm o.d.,50 μm i.d. Buffers used were pH 4.5 acetate, pH 6.0 MES and pH 8.0 TRIS. All buffer concentrations were 50 mM. Elution was at 400 V/cm and 25° C., and detection was at 214 nm. Compounds SM192 and SD209 were examined. Structures are given in Scheme 16. For each compound, 2 mg/mL stock solutions were prepared and diluted 1:1 with the running buffer. Therefore, electrophoretic mobility of compound SD209 is about two-fold higher than that of compound SM192 at all pH values examined.

[2] = Surface tension measurements (DuNouy tensiometer); type: physicochemical; details: for Surface Tension: pH ~4, 22° C.
Experimental: Surface activity behavior of the two prodrugs, SM192 and SD209 was examined using tensiometry. Stock solutions of each were prepared at a concentration of 0.06 M in water and dilutions were made using an aqueous solution of the corresponding salt counterion of the prodrug adjusted to a pH ~4. Surface tension measurements were run at 22° C. on a DuNouy tensiometer. Three measurements were run on each solution concentration.

[3] = Partition coefficient estimated by HPLC method; type: physicochemical; details: estimated using an HPLC method; read-out: HPLC Log P
[4] = Plasma concentrations after i.v. bolus of SD209 in pigs (in vivo conversion of prodrug); parameters: species or system Yorkshire domestic swine
Experimental: Data indicating conversion of the prodrug SD209 to the drug, SM256 once administered into circulation in vivo is represented in Table 5. The data in Table 5 id generated from intravenous administration of the prodrug, SD209, in pigs.
SD209 was injected intravenously at a dose of 0.5 mg/kg and plasma was seperated after blood sampling at different intervals. Following solid phase extraction of the plasma, residues were chromatographed on a supelcosil ABZ HPLC column and detected by positive ion electrospray MS/MS using a Sciex API 300. This combination provides a specific assay for both SD209 and SM256. The linear range of the assay for SM256 was from 1 ng/ml to 2000 ng/ml. Plasma concentration data for both pigs are provided below

[5] = pig 1, Time 10.0 hr, i.v. bolus 0.5 mg/kg of SD209
[6] = pig 1, Time 14.0 hr, i.v. bolus 0.5 mg/kg of SD209
[7] = pig 1, Time 24.0 hr, i.v. bolus 0.5 mg/kg of SD209
[8] = pig 2, Time 7.0 hr, i.v. bolus 0.5 mg/kg of SD209
[9] = pig 2, Time 10.0 hr, i.v. bolus 0.5 mg/kg of SD209
[10] = pig 2, Time 14.0 hr, i.v. bolus 0.5 mg/kg of SD209
[11] = pig 2, Time 24.0 hr, i.v. bolus 0.5 mg/kg of SD209

Electrophoretic Mobility ([1]; pH 4.5 acetate buffer 50 mM)	Electrophoretic Mobility ([1]; pH 6.0 MES buffer 50 mM)	Electrophoretic Mobility ([1]; pH 8.0 TRIS buffer 50 mM)	Surface Tension ([2]; Concentration 0.0015 M) [dynes/cm]	Surface Tension ([2]; Concentration 0.003 M) [dynes/cm]	Surface Tension ([2]; Concentration 0.010 M) [dynes/cm]	Surface Tension ([2]; Concentration 0.015 M) [dynes/cm]	Surface Tension ([2]; Concentration 0.030 M) [dynes/cm]	Surface Tension ([2]; Concentration 0.045 M) [dynes/cm]	Surface Tension ([2]; Concentration 0.054 M) [dynes/cm]	Surface Tension ([2]; Concentration 0.06 M) [dynes/cm]	chromatographic logP [3]	plasma conc. [4, 5]	plasma conc. [4, 6]	plasma conc. [4, 7]	plasma conc. [4, 8]	plasma conc. [4, 9]	plasma conc. [4, 10]	plasma conc. [4, 11]	Compound	further results
1.7 (cm^2 /v/sec) × 10^-4	1.6 (cm^2 /v/sec) × 10^-4	1.1 (cm^2 /v/sec) × 10^-4	69.1 ± 0.6	61.7 ± 0.2	53.5 ± 0.3	51.5 ± 0.1	50.4 ± 0.2	49.8 ± 0.4	50.0 ± 0.6	49.5 ± 0.3	3.73	–	–	–	–	–	–	–	COC(=O)C(CNC(=O)c1ccc2c(cnn2CCCNc2ncc[nH]2)c1)NS(=O)(=O)c1c(C)cc(C)cc1C (centres unmarked) [SM192]	Surface Tension ([2]; Concentration 0.00015 M): 73.0 ± 0.2 dynes/cm; Surface Tension ([2]; Concentration 0.0003 M): 73.0 ± 0.2 dynes/cm; Surface Tension ([2]; Concentration 0.0006 M): 72.3 ± 0.1 dynes/cm; Surface Tension ([2]; Concentration 0.001 M): 69.3 ± 0.6 dynes/cm; Surface Tension ([2]; Concentration 0.006 M): 56.9 ± 0.4 dynes/cm; critical micelle concentration (CMC) ([2]; from surface tension vs concentration): ~ 16 mM and ~ 11 mg/mL
–	–	–	–	–	–	–	–	–	–	–	–	BQL	BQL	BQL	BQL	BQL	BQL	BQL	Cc1cc(C)c(S(=O)(=O)NC(CNC(=O)c2ccc3c(cnn3CCCNc3ncc[nH]3)c2)C(=O)O)c(C)c1 (centres unmarked) [SM256]	–
3.2 (cm^2 /v/sec) × 10^-4	3.0 (cm^2 /v/sec) × 10^-4	2.3 (cm^2 /v/sec) × 10^-4	72.6 ± 0.06	72.4 ± 0.06	72.2 ± 0.2	67.4 ± 0.6	65.5 ± 0.5	61.9 ± 0.4	63.7 ± 0.4	61.2 ± 0.3	0.95	BQL	BQL	BQL	BQL	BQL	BQL	BQL	Cc1cc(C)c(S(=O)(=O)NC(CNC(=O)c2ccc3c(cnn3CCCNc3ncc[nH]3)c2)C(=O)OCC[N+](C)(C)C)c(C)c1 (centres unmarked) [SD209]	electrophoretic mobility relative to compound SM192 ([1]; higher than SM192 at all pH values examined): about two-fold; critical micelle concentration (not attained up to) ([2]; no CMC attained even at the highest concentrations): > 0.6 M; plasma conc. ([4]; pig 1, Time 1.0 hr, i.v. bolus 0.5 mg/kg of SD209): BQL; plasma conc. ([4]; pig 1, Time 3.0 hr, i.v. bolus 0.5 mg/kg of SD209): BQL; plasma conc. ([4]; pig 1, Time 5.0 hr, i.v. bolus 0.5 mg/kg of SD209): BQL; plasma conc. ([4]; pig 1, Time 7.0 hr, i.v. bolus 0.5 mg/kg of SD209): BQL; plasma conc. ([4]; pig 2, Time 1.0 hr, i.v. bolus 0.5 mg/kg of SD209): BQL; plasma conc. ([4]; pig 2, Time 2.0 hr, i.v. bolus 0.5 mg/kg of SD209): BQL; plasma conc. ([4]; pig 2, Time 3.0 hr, i.v. bolus 0.5 mg/kg of SD209): BQL; plasma conc. ([4]; pig 2, Time 5.0 hr, i.v. bolus 0.5 mg/kg of SD209): BQL; concentration at 0 h ([4]; pig, plasma, iv, 0.5 mg/kg, pig 1, Time 0.00 hr, i.v. bolus 0.5 mg/kg of SD209, read-out: plasma conc.): < 2 ng/mL; concentration at 0.1 h ([4]; pig, plasma, iv, 0.5 mg/kg, pig 1, Time 0.1 hr, i.v. bolus 0.5 mg/kg of SD209, read-out: plasma conc.): 60 ng/mL; concentration at 0.25 h ([4]; pig, plasma, iv, 0.5 mg/kg, pig 1, Time 0.25 hr, i.v. bolus 0.5 mg/kg of SD209, read-out: plasma conc.): 20 ng/mL; concentration at 0 h ([4]; pig, plasma, iv, 0.5 mg/kg, pig 2, Time 0.00 hr, i.v. bolus 0.5 mg/kg of SD209, read-out: plasma conc.): < 2 ng/mL; concentration at 0.1 h ([4]; pig, plasma, iv, 0.5 mg/kg, pig 2, Time 0.1 hr, i.v. bolus 0.5 mg/kg of SD209, read-out: plasma conc.): 20 ng/mL; concentration at 0.25 h ([4]; pig, plasma, iv, 0.5 mg/kg, pig 2, Time 0.25 hr, i.v. bolus 0.5 mg/kg of SD209, read-out: plasma conc.): 3 ng/mL; concentration at 0.5 h ([4]; pig, plasma, iv, 0.5 mg/kg, pig 2, Time 0.5 hr, i.v. bolus 0.5 mg/kg of SD209, read-out: plasma conc.): < 2 ng/mL; in vivo conversion of prodrug to SM256 in the circulation ([4]; pigs, i.v. 0.5 mg/kg): quantitatively converted to SM256
